What was measured:
Assay in all cases: Test C greenhouse herbicide test, pre- and postemergence
Type in all cases: in vivo
[1] = system: barnyardgrass (Echinochloa crus-galli)
Outline: (§1)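 Visual ratings on a 0 to 100 scale (0 = no effect, 100 = complete control) versus untreated controls, scored 13–15 d after treatment. Soil-applied preemergence to seeded loam/sand; foliar postemergence to 1- to 4-leaf plants (2–18 cm) in peat-vermiculite mix; compounds formulated in solvent plus surfactant.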

[2] = system: blackgrass (Alopecurus myosuroides)
Outline: as §1

[3] = system: corn (Zea mays)
Outline: as §1

[4] = system: crabgrass, large (large crabgrass, Digitaria sanguinalis)
Outline: as §1

[5] = system: foxtail, giant (giant foxtail, Setaria faberii)
Outline: as §1

[6] = system: galium (catchweed bedstraw, Galium aparine)
Outline: as §1

[7] = system: lambsquarters (Chenopodium album)
Outline: as §1

[8] = system: morningglory (Ipomoea coccinea)
Outline: as §1

[9] = system: nutsedge, yellow (yellow nutsedge, Cyperus esculentus)
Outline: as §1

[10] = system: pigweed (Amaranthus retroflexus)
Outline: as §1

[11] = system: ryegrass, Italian (Italian ryegrass, Lolium multiflorum)
Outline: as §1

[12] = system: soybean (Glycine max)
Outline: as §1

[13] = system: velvetleaf (Abutilon theophrasti)
Outline: as §1

[14] = system: waterhemp (common waterhemp, Amaranthus rudis)
Outline: as §1

[15] = system: wheat (winter wheat, Triticum aestivum)
Outline: as §1

[16] = Postemergence, 31 g ai/ha, 0 to 100 scale (0 no effect, 100 complete control)
[17] = Postemergence, 125 g ai/ha, scale 0 to 100, 0 is no effect, 100 is complete control
[18] = Postemergence, 250 g ai/ha, scale 0 to 100, 0 no effect, 100 complete control, 13 to 15 d
[19] = Preemergence, 31 g ai/ha, scale 0 to 100, 0 is no effect, 100 is complete control
[20] = Preemergence, 62 g ai/ha, scale 0 to 100, 0 is no effect, 100 is complete control
[21] = Preemergence, 125 g ai/ha, scale 0 to 100, 0 is no effect, 100 is complete control
[22] = Preemergence, 250 g ai/ha, scale 0 to 100, 0 no effect, 100 complete control
[23] = postemergence, 62 g ai/ha, scale 0 to 100, 0 no effect, 100 complete control

CCc1ccc2ccccc2c1-c1c(O)c(C)nn(C)c1=O [Compound 32]
Barnyardgrass plant response rating [1, 16]: 10 | Plant response rating, Barnyardgrass [1, 17]: 65 | Plant response rating, Barnyardgrass [1, 18]: 90 | Plant response rating, Barnyardgrass [1, 19]: 20 | Plant response rating, Barnyardgrass [1, 20]: 65 | Plant response rating, Barnyardgrass [1, 21]: 85 | Barnyardgrass plant response rating [1, 22]: 100 | Barnyardgrass plant response rating [1, 23]: 30 | Blackgrass plant response rating [2, 16]: 30 | Plant response rating, Blackgrass [2, 17]: 80 | Plant response rating, Blackgrass [2, 18]: 80 | Plant response rating, Blackgrass [2, 19]: 70 | Plant response rating, Blackgrass [2, 20]: 90 | Plant response rating, Blackgrass [2, 21]: 90 | Blackgrass plant response rating [2, 22]: 90 | Blackgrass plant response rating [2, 23]: 60 | Corn plant response rating [3, 16]: 0 | Plant response rating, Corn [3, 17]: 30 | Plant response rating, Corn [3, 18]: 40 | Plant response rating, Corn [3, 19]: 0 | Plant response rating, Corn [3, 20]: 0 | Plant response rating, Corn [3, 21]: 0 | Corn plant response rating [3, 22]: 35 | Corn plant response rating [3, 23]: 20 | Crabgrass, Large plant response rating [4, 16]: 10 | Plant response rating, Crabgrass, Large [4, 17]: 75 | Plant response rating, Crabgrass, Large [4, 18]: 70 | Plant response rating, Crabgrass, Large [4, 19]: 0 | Plant response rating, Crabgrass, Large [4, 20]: 35 | Plant response rating, Crabgrass, Large [4, 21]: 70 | Crabgrass, Large plant response rating [4, 22]: 100 | Crabgrass, Large plant response rating [4, 23]: 30 | Foxtail, Giant plant response rating [5, 16]: 15 | Plant response rating, Foxtail, Giant [5, 17]: 80 | Plant response rating, Foxtail, Giant [5, 18]: 90 | Plant response rating, Foxtail, Giant [5, 19]: 55 | Plant response rating, Foxtail, Giant [5, 20]: 80 | Plant response rating, Foxtail, Giant [5, 21]: 85 | Foxtail, Giant plant response rating [5, 22]: 85 | Foxtail, Giant plant response rating [5, 23]: 50 | Galium plant response rating [6, 16]: 90 | Plant response rating, Galium [6, 17]: 100 | Plant response rating, Galium [6, 18]: 100 | Plant response rating, Galium [6, 19]: 90 | Plant response rating, Galium [6, 20]: 95 | Plant response rating, Galium [6, 21]: 100 | Galium plant response rating [6, 22]: 98 | Galium plant response rating [6, 23]: 100 | Lambsquarters plant response rating [7, 16]: 85 | Plant response rating, Lambsquarters [7, 17]: 98 | Plant response rating, Lambsquarters [7, 18]: 100 | Plant response rating, Lambsquarters [7, 19]: 80 | Plant response rating, Lambsquarters [7, 20]: 70 | Plant response rating, Lambsquarters [7, 21]: 85 | Lambsquarters plant response rating [7, 22]: 90 | Lambsquarters plant response rating [7, 23]: 90 | Morningglory plant response rating [8, 16]: 90 | Plant response rating, Morningglory [8, 17]: 100 | Plant response rating, Morningglory [8, 18]: 100 | Plant response rating, Morningglory [8, 19]: 80 | Plant response rating, Morningglory [8, 20]: 90 | Plant response rating, Morningglory [8, 21]: 98 | Morningglory plant response rating [8, 22]: 98 | Morningglory plant response rating [8, 23]: 100 | Nutsedge, Yellow plant response rating [9, 16]: 55 | Plant response rating, Nutsedge, Yellow [9, 17]: 80 | Plant response rating, Nutsedge, Yellow [9, 18]: 85 | Plant response rating, Nutsedge, Yellow [9, 19]: 25 | Plant response rating, Nutsedge, Yellow [9, 20]: 45 | Plant response rating, Nutsedge, Yellow [9, 21]: 45 | Nutsedge, Yellow plant response rating [9, 22]: 60 | Nutsedge, Yellow plant response rating [9, 23]: 80 | Pigweed plant response rating [10, 16]: 75 | Plant response rating, Pigweed [10, 17]: 90 | Plant response rating, Pigweed [10, 18]: 95 | Plant response rating, Pigweed [10, 19]: 100 | Plant response rating, Pigweed [10, 20]: 100 | Plant response rating, Pigweed [10, 21]: 100 | Pigweed plant response rating [10, 22]: 100 | Pigweed plant response rating [10, 23]: 90 | Ryegrass, Italian plant response rating [11, 16]: 85 | Plant response rating, Ryegrass, Italian [11, 17]: 90 | Plant response rating, Ryegrass, Italian [11, 18]: 95 | Plant response rating, Ryegrass, Italian [11, 19]: 85 | Plant response rating, Ryegrass, Italian [11, 20]: 90 | Plant response rating, Ryegrass, Italian [11, 21]: 95 | Ryegrass, Italian plant response rating [11, 22]: 95 | Ryegrass, Italian plant response rating [11, 23]: 90 | Soybean plant response rating [12, 16]: 15 | Plant response rating, Soybean [12, 17]: 30 | Plant response rating, Soybean [12, 18]: 35 | Plant response rating, Soybean [12, 20]: 10 | Plant response rating, Soybean [12, 21]: 40 | Soybean plant response rating [12, 22]: 55 | Soybean plant response rating [12, 23]: 25 | Velvetleaf plant response rating [13, 16]: 10 | Plant response rating, Velvetleaf [13, 17]: 85 | Plant response rating, Velvetleaf [13, 18]: 85 | Plant response rating, Velvetleaf [13, 20]: 85 | Plant response rating, Velvetleaf [13, 21]: 85 | Velvetleaf plant response rating [13, 22]: 90 | Velvetleaf plant response rating [13, 23]: 70 | Waterhemp plant response rating [14, 16]: 70 | Plant response rating, Waterhemp [14, 17]: 85 | Plant response rating, Waterhemp [14, 18]: 98 | Plant response rating, Waterhemp [14, 20]: 100 | Plant response rating, Waterhemp [14, 21]: 100 | Waterhemp plant response rating [14, 22]: 100 | Waterhemp plant response rating [14, 23]: 80 | Wheat plant response rating [15, 16]: 5 | Plant response rating, Wheat [15, 17]: 25 | Plant response rating, Wheat [15, 18]: 40 | Plant response rating, Wheat [15, 20]: 45 | Plant response rating, Wheat [15, 21]: 50 | Wheat plant response rating [15, 22]: 70 | Wheat plant response rating [15, 23]: 15
